Assay results taken from patent US9492508B2, “Parathyroid hormone analogs and uses thereof” (The General Hospital Corporation, priority 2010, dated 2016).
Ends that are not written are not given here.

Tests used:
PD PTH receptor = molecular target: T1, PD PTH receptor (Mus musculus, UniProt P41593, S489A/S491A/S492A/S493A/S495A/S501A/S504A); assay: Blood calcium and cAMP in knock-in mice with phosphorylation-deficient (PD) PTH receptor vs wild-type; format: in vivo; conditions: FIG. 19
T1 construct: endogenous in cells; host or cells: knock-in mice (in vivo)
T1 sequence (P41593 27-591 S489A/S491A/S492A/S493A/S495A/S501A/S504A): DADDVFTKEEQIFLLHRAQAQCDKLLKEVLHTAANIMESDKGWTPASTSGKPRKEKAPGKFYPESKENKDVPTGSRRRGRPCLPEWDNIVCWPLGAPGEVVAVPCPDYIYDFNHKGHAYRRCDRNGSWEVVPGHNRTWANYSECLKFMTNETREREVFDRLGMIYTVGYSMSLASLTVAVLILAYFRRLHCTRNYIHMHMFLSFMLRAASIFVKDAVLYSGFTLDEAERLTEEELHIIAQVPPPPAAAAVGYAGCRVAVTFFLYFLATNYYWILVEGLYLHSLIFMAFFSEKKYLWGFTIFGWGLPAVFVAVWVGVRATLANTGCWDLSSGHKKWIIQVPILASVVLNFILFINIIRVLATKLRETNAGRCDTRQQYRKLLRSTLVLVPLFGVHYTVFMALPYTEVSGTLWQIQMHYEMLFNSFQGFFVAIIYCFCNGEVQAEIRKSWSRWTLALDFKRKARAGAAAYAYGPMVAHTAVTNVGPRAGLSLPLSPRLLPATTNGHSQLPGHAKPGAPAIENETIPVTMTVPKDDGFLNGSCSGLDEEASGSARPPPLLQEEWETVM
Protocol: The activity of SP-PTH-AAK (SEQ ID NO:4) was tested in “knock-in” mice that express a PD PTH receptor in place of the wild-type PTH receptor (Bounoutas et al., Endocrinology 147: 4674, 2006).
Blood cAMP levels were also compared between the two types of mice.

human PTHR1 (RG) = molecular target: T2, human PTHR1 (RG) (Homo sapiens, UniProt Q03431); assay: Competition binding, RG conformation of human PTHR1 (COS-7 membranes); conditions: mean of 3 experiments, read-out: Binding human PTHR1 IC50 (Log M) RG (converted)
T2 construct: expressed in transfected cells; host or cells: COS-7 cells (membranes)
T2 sequence (Q03431 27-593): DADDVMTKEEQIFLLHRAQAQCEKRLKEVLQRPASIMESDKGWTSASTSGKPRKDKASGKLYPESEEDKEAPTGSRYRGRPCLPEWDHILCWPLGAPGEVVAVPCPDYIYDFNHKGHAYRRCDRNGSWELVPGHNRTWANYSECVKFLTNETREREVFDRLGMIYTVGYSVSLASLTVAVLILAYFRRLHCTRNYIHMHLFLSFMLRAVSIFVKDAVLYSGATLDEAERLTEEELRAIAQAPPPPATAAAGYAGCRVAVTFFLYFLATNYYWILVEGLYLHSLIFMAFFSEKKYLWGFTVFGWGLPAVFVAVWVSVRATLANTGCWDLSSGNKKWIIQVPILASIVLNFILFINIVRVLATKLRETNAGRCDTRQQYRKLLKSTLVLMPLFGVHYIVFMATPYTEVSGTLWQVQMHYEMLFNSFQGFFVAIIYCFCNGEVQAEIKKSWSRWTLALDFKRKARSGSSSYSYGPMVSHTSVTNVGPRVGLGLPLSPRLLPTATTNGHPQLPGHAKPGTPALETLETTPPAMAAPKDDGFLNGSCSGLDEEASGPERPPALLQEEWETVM
Protocol: Briefly, the R^0 form of the receptor can be favored by addition of the non-hydrolyzable nucleotide analog GTPγS. The RG form can be favored, for example, by co-transfection of cells with a negative dominant Gαs subunit. […] Data are means of four experiments, each performed in duplicate. Curves were fit to the data using Graph-Pad Prism 4.0.
Here, competition binding assays for the R^0 and RG PTHR1 conformation were performed in membranes prepared from transfected COS-7 cells, as described by Dean et al., Mol Endocrinol 22:156-66, 2008. Data are means of three experiments, each performed in duplicate. Curves were fit to the data using Graph-Pad Prism 4.0.

[1] = Plasma concentration in cynomolgus monkey after intravenous injection; format: in vivo; conditions: male, 1 nmol/kg intravenous
Protocol: FIG. 11B is a graph showing plasma concentration of SP-PTH (SEQ ID NO:11) in monkey following intravenous injection of 1 nmol/kg.
The effects of the SP-PTH (SEQ ID NO:11) and SP-PTH-AAK (SEQ ID NO:4) (“SP-AAK”) on serum and urinary calcium and phosphate levels were tested in cynomolgus monkeys. Briefly, three- or four-year-old, male cynomolgus monkeys (HAMRI Co., Ltd., Ibaraki, Japan) were measured for their body weight. Blood was collected into tubes. Monkeys received intravenous or subcutaneous administration of each polypeptide at a dose of 0.3 ml/kg. Polypeptide concentrations in stock solution were adjusted by dilution with 25 mmol/L phosphate-citrate buffer/100 mmol/L NaCl/0.05% Tween 80 (pH.5.0) (PC-buffer). All polypeptides were allowed to stand on ice immediately before administration. Polypeptides were administered to groups of three monkeys each respectively. At 1, 2, 4, and 8 hours after administration, blood was collected by saphenous vein to monitor the time course of calcium and phosphorus levels (FIG. 11A).

Row | Substance | blood calcium level in PD mice (PD PTH receptor) | IC50 (human PTHR1 (RG)) [nM] | half-life [1] [min]
1 | AVAEIQLMHQRAKWIQDARRRAFLHKLIAEIHTAEI-OH [SP-PTH-AAK, [Ala^1,3,12,18,22,Gln^10,Arg^11,Trp^14,Lys^26]PTH(1-14)/PTHrP(15-36)] | reduced blood calcium level for at least six hours after injection | 0.224 | –
2 | AVAEIQLMHQRAKWIQDLRRRFFLHHLIAEIHTAEI-OH [SP-PTH, [Ala^1,3,12,Gln^10,Arg^11,Trp^14]PTH(1-14)/PTHrP(15-36)] | – | – | ~4
